In patent publication US20250136606A1, “MODULATORS OF TRPML, THEIR COMPOSITIONS AND METHODS OF USE” (Caraway Therapeutics, Inc., priority 2021, published 2025):
Like-named read-outs stand apart in the source and are kept apart here.

Columns and labels:
Format in all cases: cell-based
[1] = biological target: T1, TRPML2 (Homo sapiens, UniProt Q8IZK6); experiment: Fluorescent TRPML2 assay (performed as for TRPML1, substituting the TRPML2 subtype)
T1 construct: expressed in transfected cells
T1 sequence (Q8IZK6 1-566): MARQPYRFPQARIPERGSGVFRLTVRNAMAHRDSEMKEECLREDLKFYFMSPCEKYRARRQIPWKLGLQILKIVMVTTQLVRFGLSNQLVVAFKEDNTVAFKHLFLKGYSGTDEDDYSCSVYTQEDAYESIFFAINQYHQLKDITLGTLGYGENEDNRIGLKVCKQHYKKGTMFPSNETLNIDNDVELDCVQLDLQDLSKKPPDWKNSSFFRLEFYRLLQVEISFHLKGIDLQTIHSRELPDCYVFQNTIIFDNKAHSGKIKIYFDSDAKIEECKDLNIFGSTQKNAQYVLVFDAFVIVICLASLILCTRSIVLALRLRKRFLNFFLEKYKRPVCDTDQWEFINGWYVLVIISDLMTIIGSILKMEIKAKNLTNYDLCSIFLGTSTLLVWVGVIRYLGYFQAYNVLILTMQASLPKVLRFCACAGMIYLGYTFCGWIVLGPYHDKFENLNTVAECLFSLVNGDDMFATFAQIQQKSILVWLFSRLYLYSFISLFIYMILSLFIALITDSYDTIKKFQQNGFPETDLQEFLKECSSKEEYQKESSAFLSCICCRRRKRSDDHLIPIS
Outline: (§1)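 Compound series (final 6 nM-20 μM, half-log, triplicate) were added to Fluo4-AM-loaded HEK-293 Trex cells in 10 mM calcium Ringer's, expressing the human TRPML subtype after doxycycline 0.5 ug/mL induction. Percent activity versus positive/negative controls from 480/540 nm fluorescence; EC50 by non-linear regression.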

[2] = biological target: TRPML1 (Homo sapiens, UniProt Q9GZU1); experiment: Fluorescent TRPML1 assay (Fluo4-AM calcium fluorescence in doxycycline-induced HEK-293 Trex cells)
TRPML1, sequence (Q9GZU1 whole entry L15A/L16A/L577A/L578A, form open): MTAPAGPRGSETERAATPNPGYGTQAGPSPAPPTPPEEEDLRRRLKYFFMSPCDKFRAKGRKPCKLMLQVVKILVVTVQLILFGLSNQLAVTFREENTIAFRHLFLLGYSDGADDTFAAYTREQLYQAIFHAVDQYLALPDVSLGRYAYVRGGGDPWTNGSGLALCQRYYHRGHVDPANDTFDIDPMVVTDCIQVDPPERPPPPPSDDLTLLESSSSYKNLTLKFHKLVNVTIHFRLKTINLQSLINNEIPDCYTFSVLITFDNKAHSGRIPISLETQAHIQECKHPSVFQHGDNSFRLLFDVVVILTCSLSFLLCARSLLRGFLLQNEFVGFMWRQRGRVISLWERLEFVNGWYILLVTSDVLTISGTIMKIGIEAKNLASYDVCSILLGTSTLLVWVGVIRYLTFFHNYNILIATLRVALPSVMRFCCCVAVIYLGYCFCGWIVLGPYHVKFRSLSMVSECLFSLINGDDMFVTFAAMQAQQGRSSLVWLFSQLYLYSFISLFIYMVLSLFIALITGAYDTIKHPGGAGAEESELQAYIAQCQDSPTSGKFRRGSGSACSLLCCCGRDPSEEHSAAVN
Outline: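 HEK-293 Trex cells stably expressing surface-directed mutant human TRPML1, induced with 0.5 µg/mL doxycycline overnight, were loaded with 1 µM Fluo4-AM and added to compound (6 nM–20 µM final, half-log steps, triplicate) in Ringer's with 10 mM calcium. Fluorescence ex 480/em 540; EC50 by non-linear regression versus plate controls.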

[3] = biological target: T2, TRPML3 (Homo sapiens, UniProt Q8TDD5); experiment: Fluorescent TRPML3 assay (performed as for TRPML1, substituting the TRPML3 subtype)
T2 construct: expressed in transfected cells
T2 sequence (Q8TDD5 1-553): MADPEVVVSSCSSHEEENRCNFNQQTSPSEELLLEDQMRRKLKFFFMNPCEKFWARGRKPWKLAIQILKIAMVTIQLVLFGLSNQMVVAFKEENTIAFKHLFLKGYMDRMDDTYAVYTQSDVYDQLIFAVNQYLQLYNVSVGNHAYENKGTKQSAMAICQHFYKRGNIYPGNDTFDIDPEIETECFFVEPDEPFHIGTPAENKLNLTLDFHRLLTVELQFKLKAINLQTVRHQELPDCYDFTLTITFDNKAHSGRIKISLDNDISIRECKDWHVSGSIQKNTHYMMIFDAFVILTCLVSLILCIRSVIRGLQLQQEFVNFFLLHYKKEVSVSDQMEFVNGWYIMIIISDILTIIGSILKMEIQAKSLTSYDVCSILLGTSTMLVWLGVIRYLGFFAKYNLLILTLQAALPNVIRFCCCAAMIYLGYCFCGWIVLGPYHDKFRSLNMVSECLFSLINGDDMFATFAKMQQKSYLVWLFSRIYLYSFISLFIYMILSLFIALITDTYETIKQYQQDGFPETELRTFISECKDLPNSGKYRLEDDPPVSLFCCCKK
Outline: as §1

EC50 ([1]; fluorescent calcium assay) [nM] | EC50 ([2]; fluorescent calcium assay) [nM] | EC50 ([3]; fluorescent calcium assay) [nM] | EC50 [1] [nM] | EC50 [2] [nM] | EC50 [3] [nM] | SMILES
< 100 | < 100 | < 100 | – | – | – | C[C@@H]1CN(c2ncnc3c2c(N2CCC2)cn3-c2cccc(Cl)c2)[C@@H](C)CN1C(=O)OC(C)(C)C [Compound 490, tert-butyl (2R,5S)-4-(5-(azetidin-1-yl)-7-(3-chlorophenyl)-7H-pyrrolo[2,3-d]pyrimidin-4-yl)-2,5-dimethylpiperazine-1-carboxylate]
100 to 500 | < 100 | < 100 | – | – | – | C[C@@H]1CN(c2ncnc3c2c(C(F)(F)F)cn3-c2cccc(Cl)c2)[C@@H](C)CN1C(=O)OC(C)(C)C [Compound 491, tert-Butyl (2R,5S)-4-(7-(3-chlorophenyl)-5-(trifluoromethyl)-7H-pyrrolo[2,3-d]pyrimidin-4-yl)-2,5-dimethylpiperazine-1-carboxylate]
100 to 500 | < 100 | < 100 | – | – | – | C[C@@H]1CN(c2ncnc3c2c(C(F)(F)F)cn3-c2cc(F)cc(F)c2)[C@@H](C)CN1C(=O)OC(C)(C)C [Compound 492]
< 100 | < 100 | < 100 | – | – | – | C[C@H]1CN(C(=O)OC(C)(C)C)CCN1c1ncnc2c1c(N1CCC1)cn2-c1cccc(Cl)c1 [Compound 493, tert-butyl (S)-4-(5-(azetidin-1-yl)-7-(3-chlorophenyl)-7H-pyrrolo[2,3-d]pyrimidin-4-yl)-3-methylpiperazine-1-carboxylate]
– | – | – | 100 to 500 | < 100 | < 100 | C[C@H]1CN(C(=O)OC(C)(C)C)CCN1c1ncnc2c1c(C(F)(F)F)cn2-c1cccc(Cl)c1 [Compound 494, tert-butyl (S)-4-(7-(3-chlorophenyl)-5-(trifluoromethyl)-7H-pyrrolo[2,3-d]pyrimidin-4-yl)-3-methylpiperazine-1-carboxylate]
– | – | – | 100 to 500 | < 100 | < 100 | C[C@H]1CN(C(=O)OC(C)(C)C)CCN1c1ncnc2c1c(C(F)(F)F)cn2-c1cc(F)cc(F)c1 [Compound 495]
– | – | – | 100 to 500 | < 100 | < 100 | C[C@@H]1CN(c2ncnc3c2c(C(F)(F)F)cn3-c2cccc(F)c2)[C@@H](C)CN1C(=O)OC(C)(C)C [Compound 496, tert-butyl (2R,5S)-4-(7-(3-fluorophenyl)-5-(trifluoromethyl)-7H-pyrrolo[2,3-d]pyrimidin-4-yl)-2,5-dimethylpiperazine-1-carboxylate]
– | – | – | < 100 | < 100 | < 100 | C[C@@H]1CN(c2ncnc3c2c(N2CCC2)cn3-c2cc(F)cc(F)c2)[C@@H](C)CN1C(=O)OC(C)(C)C [Compound 497, tert-butyl (2R,5S)-4-(5-(azetidin-1-yl)-7-(3,5-difluorophenyl)-7H-pyrrolo[2,3-d]pyrimidin-4-yl)-2,5-dimethylpiperazine-1-carboxylate]
– | – | – | < 100 | < 100 | < 100 | C[C@H]1CN(C(=O)OC(C)(C)C)CCN1c1ncnc2c1c(N1CCC1)cn2-c1cc(F)cc(F)c1 [Compound 498, tert-butyl (S)-4-(5-(azetidin-1-yl)-7-(3,5-difluorophenyl)-7H-pyrrolo[2,3-d]pyrimidin-4-yl)-3-methylpiperazine-1-carboxylate]
– | – | – | 100 to 500 | < 100 | < 100 | CCCN(C)c1cn(-c2cc(C#N)ccn2)c2ncnc(N3C[C@@H](C)N(C(=O)OC(C)(C)C)C[C@@H]3C)c12 [Compound 499, tert-butyl (2R,5S)-4-(7-(4-cyanopyridin-2-yl)-5-(methyl(propyl)amino)-7H-pyrrolo[2,3-d]pyrimidin-4-yl)-2,5-dimethylpiperazine-1-carboxylate]
– | – | – | 500 to 2000 | 100 to 500 | 100 to 500 | C=CCOC(=O)N(CCC)c1cn(-c2cc(Cl)ccn2)c2ncnc(N3C[C@@H](C)N(C(=O)OC(C)(C)C)C[C@@H]3C)c12 [Compound 500, tert-butyl (2R,5S)-4-(5-(((allyloxy)carbonyl)(propyl)amino)-7-(4-chloropyridin-2-yl)-7H-pyrrolo[2,3-d]pyrimidin-4-yl)-2,5-dimethylpiperazine-1-carboxylate]
– | – | – | 100 to 500 | < 100 | < 100 | C[C@H]1CN(c2ncnc3c2c(C(F)(F)F)cn3-c2cc(C#N)ccn2)[C@@H](C)CN1C(=O)OC(C)(C)C [Compound 502, tert-butyl (25,5S)-4-(7-(4-cyanopyridin-2-yl)-5-(trifluoromethyl)-7H-pyrrolo[2,3-d]pyrimidin-4-yl)-2,5-dimethylpiperazine-1-carboxylate]
– | – | – | > 2000 | < 100 | 100 to 500 | C[C@@H]1CN(c2ncnc3c2c(C(F)(F)F)cn3-c2cc(C#N)ccn2)[C@H](C)CN1C(=O)OC(C)(C)C [Compound 503, tert-butyl (2R,5R)-4-(7-(4-cyanopyridin-2-yl)-5-(trifluoromethyl)-7H-pyrrolo[2,3-d]pyrimidin-4-yl)-2,5-dimethylpiperazine-1-carboxylate]
– | – | – | 100 to 500 | < 100 | < 100 | C[C@@H]1CN(c2ncnc3c2c(N2CC4(COC4)C2)cn3-c2cc(C#N)ccn2)[C@@H](C)CN1C(=O)OC(C)(C)C [Compound 504, tert-butyl (2R,5S)-4-(7-(4-cyanopyridin-2-yl)-5-(2-oxa-6-azaspiro[3.3]heptan-6-yl)-7H-pyrrolo[2,3-d]pyrimidin-4-yl)-2,5-dimethylpiperazine-1-carboxylate]
– | – | – | > 2000 | < 100 | < 100 | C[C@@H]1CN(c2ncnc3c2c(C(F)(F)F)cn3-c2cc(F)ccn2)[C@@H](C)CN1C(=O)OC(C)(C)C [Compound 505, tert-butyl (2R,5S)-4-(7-(4-fluoropyridin-2-yl)-5-(trifluoromethyl)-7H-pyrrolo[2,3-d]pyrimidin-4-yl)-2,5-dimethylpiperazine-1-carboxylate]
– | – | – | 500 to 2000 | < 100 | < 100 | C[C@@H]1CN(c2ncnc3c2c(C(F)(F)F)cn3-c2cc(Cl)ccn2)[C@@H](C)CN1C(=O)OC(C)(C)C [Compound 506, tert-butyl (2R,5S)-4-(7-(4-chloropyridin-2-yl)-5-(trifluoromethyl)-7H-pyrrolo[2,3-d]pyrimidin-4-yl)-2,5-dimethylpiperazine-1-carboxylate]
– | – | – | < 100 | < 100 | < 100 | CCCOc1cn(-c2cc(C#N)ccn2)c2ncnc(N3C[C@@H](C)N(C(=O)OC(C)(C)C)C[C@@H]3C)c12 [Compound 507, tert-butyl (2R,5S)-4-(7-(4-cyanopyridin-2-yl)-5-propoxy-7H-pyrrolo[2,3-d]pyrimidin-4-yl)-2,5-dimethylpiperazine-1-carboxylate]
– | – | – | < 100 | < 100 | < 100 | C[C@@H]1CN(c2ncnc3c2c(C(F)(F)F)cn3-c2cc(C#N)ncn2)[C@@H](C)CN1C(=O)OC(C)(C)C [Compound 509, tert-butyl (2R,5S)-4-(7-(6-cyanopyrimidin-4-yl)-5-(trifluoromethyl)-7H-pyrrolo[2,3-d]pyrimidin-4-yl)-2,5-dimethylpiperazine-1-carboxylate]
– | – | – | > 2000 | 100 to 500 | < 100 | C[C@@H]1CN(c2ncnc3c2c(C(F)(F)F)cn3-c2nccc(C#N)n2)[C@@H](C)CN1C(=O)OC(C)(C)C [Compound 510, tert-butyl (2R,5S)-4-(7-(4-cyanopyrimidin-2-yl)-5-(trifluoromethyl)-7H-pyrrolo[2,3-d]pyrimidin-4-yl)-2,5-dimethylpiperazine-1-carboxylate]
– | – | – | < 100 | < 100 | < 100 | C[C@@H]1CN(c2ncnc3c2c(C(F)F)cn3-c2cc(C#N)ccn2)CCN1C(=O)OC(C)(C)C [Compound 511, tert-butyl (R)-4-(7-(4-cyanopyridin-2-yl)-5-(difluoromethyl)-7H-pyrrolo[2,3-d]pyrimidin-4-yl)-2-methylpiperazine-1-carboxylate]
